Results from patent US4820707A, “2,6-piperazinedione compounds” (ADIR Et Cie, priority 1986, dated 1989).

Tests used:
Type in all cases: in vivo
[1] = Anxiolytic activity by the four-plates test; conditions: mice; for change in vivo at 5 mg/kg: Mus musculus, ip, i.p., 5 mg.kg^-1, read-out: % increase in the responses (transitions)
Description: The anxiolytic activity of the compounds of the general formula I was investigated in mice according to the method of Aron Simon Larousse and Boissier described in Neuropharmacology (1971) 10 p. 459-469). After treatment of the animals by means of different doses of the compounds of the invention administered intraperitoneally or orally, the increase in the percentage of transitions during the exploration of the base of the test cage, in the presence of electric shocks, was assessed.

[2] = Inhibition of isolation-induced aggression in mice; conditions: Mus musculus, ip, read-out: Inhibitory ED50 (effective dose inhibiting 50% of the aggressive animals)
From the text: The compounds of general formula I inhibit the attacking behavior of mice rendered aggressive by isolation according to the method described by Yen, Stanger and Millman in Arch. Int. Pharmacodyn. 1959, 123, p. 179-185.

[3] = Inhibition of aggression in isolated and bulbectomized rats
Description: The inhibition of aggression was assessed according to the method described by Vergnes and Karli in C.R. Soc. Biol. 1963, 157, p. 1061. The effect on the aggression is assessed in terms of the percentage of animals which became non-killers after treatment.

[4] = Anxiolytic activity by the Geller-Seifter test; conditions: rats, i.p., p<0.05
Description: The anxiolytic activity of the compounds of the present invention was also assessed in rats with the Geller-Seifter test described by Geller, Kulac and Seifter in Psychopharmacologia, 1962, 3, p. 374-375.
An increase related exclusively to the levels of the punished responses determines the existence of an authentic anxiolytic effect.

[5] = Inhibition of the active conditioned avoidance response in rats; conditions: i.p.
From the text: The results obtained with the compounds of general formula I during the various experiments employing the method described by Courvoisier et al. in Arch. Int. Pharmacodyn., 1953, 92, p. 305-361 and by Janssen et al. in Arzneim, Forsch, 1965, 15, p.

[6] = Anxiolytic activity by the "staircase" test; design: key to % variation in the steps climbed: NS: not significant; conditions: rats
From the text: The anxiolytic activity of the compounds of the invention was investigated in rats according to the method described by Thiebot, Soubrie and Boissier in J. Pharmacol. 1976, 7, (1), p. 87-102. In this test, behavior involving rearing movements is associated with a state of distress of the animal. The number of steps climbed represents the normal exploratory behavior of the rat introduced into the enclosure. Normally, an efficacious anxiolytic compound should decrease, during the test which lasts 3 minutes, the number of rearing movements without modifying the number of steps climbed, or on the contrary should increase this latter parameter.

[7] = Anxiolytic activity by MacMillan's conflict test; conditions: rats, i.p., 2,5 mg.kg^-1, vs physiological saline
From the text: In these conditioning experiments which operate in the presence of a food reward, performed in rats according to the method described by MacMillan in Fed. Proceedings, 1975, 34, (9), p. 1870-1879, two parameters in the animal's behavioral responses are considered. The first parameter is the variation in the level of punished responses, in the presence of an electric shock, under the influence of the treatment in comparison with the level of punished responses under the influence of physiological saline. The second parameter is the variation in the level of unpunished responses, without an electric shock, under the influence of the same treatment, in comparison with the level of unpunished responses when physiological saline is administered. A specific anxiolytic effect is established when, after the administration of a substance, the level of only the punished responses is increased.

For `O=C(O)C(=O)O.O=C(O)C(=O)O.O=C1CN(Cc2ccccn2)CC(=O)N1CCCN1CCN(c2cccc(C(F)(F)F)c2)CC1` [Example 21, 4-(2-Pyridylmethyl)-1-{3-[1-(3-trifluoromethylphenyl)-4-piperazinyl]propyl}-2,6-piperazinedione dioxalate], the change in vivo at 5 mg/kg [1] was 69%, the ED50 [2] was 11.1 mg/kg and the “% of non-killer animals” value ([3]; i.p., 12,5 mg.kg^-1) was 73%.
In the case of `O=C1CN(Cc2ccccc2F)CC(=O)N1CCCN1CCN(c2cccc(Cl)c2)CC1` [Example 2, 4-(2-Fluorobenzyl)-1-{3-8 1-(3-chlorophenyl)-4-piperazinyl]propyl}-2,6-piperazinedione dimandelate], the “increase in the punished responses” value ([4]; 5.0 mg.kg^-1) is reported as 65%.
With `Cc1ccccc1N1CCN(CCCN2C(=O)CN(Cc3ccccn3)CC2=O)CC1.Cl.Cl.Cl` [Example 19, 4-(2-Pyridylmethyl)-1-{3-[1-(2-methylphenyl)-4-piperazinyl]propyl}-2,6-piperazinedione trihydrochloride] the ED50 [2] was 6.78 mg/kg, the “% ICAR (percentage inhibition of the conditioned avoidance response)” value ([5]; 20 mg.kg^-1) was 26% and the “% ICAR (percentage inhibition of the conditioned avoidance response)” value ([5]; 40 mg.kg^-1) was 73%.
With `O=C1CN(Cc2ccccc2)CC(=O)N1CCCN1CCN(c2ccc(F)cc2)CC1` [Example 9, 4-Benzyl-1-{3-[1-(4-fluorophenyl)-4-piperazinyl]propyl}-2,6-piperazinedioneoxalate] the ED50 [2] was 8.6 mg/kg and the “% of non-killer animals” value ([3]; i.p., 25 mg.kg^-1) was 60%.
With `O=C1CN(Cc2ccccc2F)CC(=O)N1CCCN1CCN(c2cccc(C(F)(F)F)c2)CC1` [Example 1, 4-(2-Fluorobenzyl)-1-{3-[1-(3-trifluoromethylphenyl)-4-piperazinyl]propyl}-2,6-piperazinedione dimandelate] the change in vivo at 5 mg/kg [1] was 65%, the “% increase in the responses” value ([1]; p.o., 50 mg.kg^-1) was 64% and the “% variation in the rearing movements” value ([6]; i.p., 10 mg.kg^-1) was -39%. For the same compound, the “% variation in the steps climbed” value ([6]; i.p., 10 mg.kg^-1) was “NS”, the “% variation in the rearing movements” value ([6]; i.p., 20 mg.kg^-1) was -64% and the “% variation in the steps climbed” value ([6]; i.p., 20 mg.kg^-1) was “NS”. The “% variation in the rearing movements” value ([6]; i.p., 2,5 mg.kg^-1) was -20%, the “% variation in the steps climbed” value ([6]; i.p., 2,5 mg.kg^-1) was “NS” and the “% variation in the unpunished responses” value ([7]; NS (not significant)) was “+18%”. For the same compound, the “% variation in the punished responses” value ([7]; S (significant)) was “+49%”, the “increase in the punished responses” value ([4]; 2.5 mg.kg^-1) was 39% and the ED50 [2] was 7.64 mg/kg. For the same compound, the “% of non-killer animals” value ([3]; i.p., 25 mg.kg^-1) was 45%.
